Measured values from publication PMC7005646, “Overcoming resistance to anabolic SARM therapy in experimental cancer cachexia with an HDAC inhibitor” (EMBO Molecular Medicine, 2020).

Tests used:
tumor‐free mice = test system: tumor‐free mice; parameters: method as in Tseng et al, 2015a; settings: ref Tseng et al, 2015a, cited from earlier work
IIb HDACs = test: In vitro HDAC inhibition assay, class IIb isoforms; assay type: biochemical, human; settings: 1 μM AR‐42; range over isoforms
Experimental: HDAC activity was measured by a commercial vendor using human recombinant HDAC enzymes and fluorogenic HDAC substrates (Eurofins Cerep SA, Celle L'Evescault, France). Substrate concentrations ranged from 20 to 400 μM, and incubation conditions ranged from 10 to 90 min (RT or 37°C), depending on isoform. Results are expressed as percent inhibition of control specific activity in the presence of 1 μM AR‐42.

C‐26 tumor‐bearing mice = test: AR‐42 dose–response study in the C‐26 cachexia model; assay type: in vivo, mouse
Experimental: These studies were performed as previously described (Tseng et al, 2015a) with modifications. Tumors were established in the right flank of CD2F1 mice by subcutaneous injection of C‐26 cells (0.5 × 10^6 cells in 0.1 ml). […] TFM‐4AS‐1 (a potent experimental SARM), DHT, and vehicles were administered by subcutaneous injection.
Therefore the efficacy and associated exposures of reduced doses of AR‐42 were determined. Male CD2F1 mice were stratified by body weight and then randomly assigned into five groups of six animals each. C‐26 tumors were established in four of the groups, while those in the fifth group, serving as tumor‐free controls, were injected with sterile saline. Six days later, animals with palpable tumors were treated with AR‐42 once daily at 10 (n = 5) and 20 mg/kg (n = 6), and every other day at 50 mg/kg (n = 5, the originally described anti‐cachectic dose; Tseng et al, 2015a), or vehicle control (n = 4) for 13 days. Upon sacrifice on study day 18, when the majority of tumor‐bearing control mice met euthanasia criteria, the left gastrocnemius muscle was excised, flash‐frozen in liquid nitrogen, and stored at −80°C for subsequent analyses. Carcass weights were corrected for tumor weight by assuming a tumor density equivalent to water (1 g/cm^3). […] This study was performed as described above with animals treated with AR‐42 once daily at 1, 3, and 10 mg/kg or with vehicle control (n = 8).

[1] = AR‐42 plasma and tissue pharmacokinetics, single oral dose, tumor‐free CD2F1 mice; assay type: in vivo, mouse; settings: for Plasma exposure: mouse
Experimental: Pharmacokinetic studies were performed as previously described (Cheng et al, 2016) with the following modifications. Seven week‐old, male, tumor‐free CD2F1 mice (n = 3 per dose and time point) were administered single oral doses of 10, 20, and 50 mg/kg AR‐42 and then sacrificed 0.25, 4, and 24 h later. Fifty milligrams of gastrocnemius muscle tissue was flash‐frozen in 2 ml BeadBlaster™ 24 (MIDSCI; St. Louis, MO) tubes and stored at −80°C. Samples were homogenized for 6 cycles using a BeadBlaster 24 with analytical standards in 1 mL methanol and then centrifuged at 15,600 g (4°C) for 10 min. Supernatants were transferred to glass tubes, dried under nitrogen, and then reconstituted in 200 μl 40% methanol/0.1% formic acid. Plasma preparation and LC‐MS/MS analyses were performed as previously described (Sborov et al, 2017). Mouse plasma and muscle pharmacokinetic parameters were estimated as previously described with the exception of Cavg, which was calculated as AUCall/[dosing interval(h)].

[2] = test system: atrogin‐1, MuRF‐1, CEBPδ expression; test: qRT–PCR of atrophy‐related genes in gastrocnemius, Study 1; assay type: in vivo, mouse; settings: GTx‐024 15 mg/kg, AR‐42 10 mg/kg, or both
Experimental: To generate muscle tissue RNA, 15 mg of gastrocnemius muscle tissue was lysed in 10 volumes of lysis buffer per tissue mass in prefilled 2.0‐ml tubes with 3.0 mm zirconium beads (MIDSCI; St. Louis, MO). Tubes were loaded into BeadBlaster™ 24 (MIDSCI; St. Louis, MO) and […] for five cycles of 5 s with a 30‐s pause between cycles. Lysate was collected, and RNA was isolated using the mirVana™ miRNA Isolation Kit, with phenol (Thermo Fisher; Waltham, MA). Samples were treated with DNA‐free DNA Removal Kit to eliminate any DNA contamination (Invitrogen, Carlsbad, CA). Total RNA (0.5 μg) was reverse‐transcribed using high‐capacity cDNA reverse transcription kit (Applied Biosystems, Foster City, CA) for 10 min at 25°C, 120 min at 37°C, and 5 min at 85°C (T100™ Thermal Cycler, Bio‐Rad). Real‐time qPCR was performed on the QuantStudio 7 system (Applied Biosystems, Foster City, CA) using the powerup SYBR Green Master Mix (Applied Biosystems, Foster City, CA). Cycling was performed using the QuantStudio 7 real‐time PCR software—2 min at 50°C and 10 min at 95°C—followed by 40 cycles of 15 s at 95°C and 1 min at 60°C. […] As transformed expression data are not normally distributed, statistical differences between treatment groups were determined by one‐way ANOVA followed by Dunnett's test on raw delta C t values.

Structure (SMILES): CC(C)[C@H](C(=O)Nc1ccc(C(=O)NO)cc1)c1ccccc1 [AR‐42]
- maximally tolerated dose in mice (tumor‐free mice; oral gavage every other day): 50 mg/kg
- effect on lower limb skeletal muscle masses relative to controls (tumor‐free mice; tumor‐free mice, 50 mg/kg every other day): no significant effects on lower limb skeletal muscle masses
- reduction in epididymal adipose tissue masses (tumor‐free mice; tumor‐free mice, 50 mg/kg oral every other day): ~50%
- inhibition of class IIb HDACs (IIb HDACs): 86–100%
- minimally efficacious dose (anti‐cachectic) (C‐26 tumor‐bearing mice; daily oral, 13 days, C‐26 model): 10 mg/kg
- effect on C‐26 tumor‐mediated reductions in tumor‐corrected body weight and gastrocnemius mass (C‐26 tumor‐bearing mice; lower doses (1, 3 mg/kg daily)): not effective
- effect on C‐26 tumor‐mediated reductions in tumor‐corrected body weight and gastrocnemius mass (C‐26 tumor‐bearing mice; thirteen daily oral doses of 20 or 10 mg/kg): ameliorated
- AUCall ([1]; 10 mg/kg oral, Muscle): 11,076.7 nM*h
- Cavg ([1]; 10 mg/kg oral, Muscle): 461.5 nM
- Cmax ([1]; 10 mg/kg oral, Muscle): 1.11 µM
- AUCall ([1]; 10 mg/kg oral, Plasma): 10,931.6 nM*h
- Cmax ([1]; 10 mg/kg oral, Plasma): 1.5 µM
- Cavg ([1]; 10 mg/kg oral, Plasma, AUCall/dosing interval): 455.5 nM
- gastrocnemius muscle concentration ([1]; 10 mg/kg oral, remained above for 4 h): above 700 nM
- AUCall ([1]; 20 mg/kg oral, Muscle): 36,504.2 nM*h
- Cavg ([1]; 20 mg/kg oral, Muscle): 1,521.0 nM
- Cmax ([1]; 20 mg/kg oral, Muscle): 3.66 µM
- AUCall ([1]; 20 mg/kg oral, Plasma): 34,369.3 nM*h
- Cavg ([1]; 20 mg/kg oral, Plasma): 1,432.1 nM
- Cmax ([1]; 20 mg/kg oral, Plasma): 3.86 µM
- AUCall ([1]; 50 mg/kg oral, Muscle): 72,624.7 nM*h
- Cavg ([1]; 50 mg/kg oral, Muscle): 3,026.2 nM
- Cmax ([1]; 50 mg/kg oral, Muscle): 6.37 µM
- AUCall ([1]; 50 mg/kg oral, Plasma): 74,307.3 nM*h
- Cavg ([1]; 50 mg/kg oral, Plasma): 3,096.1 nM
- Cmax ([1]; 50 mg/kg oral, Plasma): 7.93 µM
- mouse plasma exposure at 50 mg/kg over well‐tolerated human exposure ([1]; 74.3 vs 8.5 μM*h): 8.7 fold
- Plasma exposure ([1]; single oral dose 10 mg/kg): 10.9 µM·h
- Plasma exposure ([1]; single oral dose 50 mg/kg): 74.3 µM·h
- atrogin‐1, MuRF‐1, CEBPδ expression in gastrocnemius relative to tumor‐bearing controls [2]: significantly reduced
